Measured values reported in patent publication US20050059641A1, “Compositions and methods for treating and preventing cancer using analogs of vitamin D” (Aphios Corporation, priority 2003, published 2005).
“Also recorded” adds a separate entry of the source.

Assays:
[1] = system: caspase-9; assay: Caspase Colorimetric assay, caspase-9; type: cell-based; settings: PC3 cells, 10 nM, 14 hours
Description: (§1) Caspase-activity: There are several markers for apoptosis, and caspase activity is one of them; and their levels normally go up under apoptotic conditions. Investigators determined the levels of caspases 3, 8 and 9 by Caspase Colorimetric assay kits from R&D Systems (Minneapolis, Minn.) and used according to the manufacturer's instructions. Briefly, PC3 cells (1×10^6) were treated with 10 nM of 1,25(OH)2D3, 25-OH-D3 or 25-OH-D3-3-BE for 14 hours in culture medium (DMEM, 10% FBS and antibiotics). The cells were collected by centrifugation at 1000 RPM for 5 min. The cell pellet was lysed with lysis buffer, and the lysate was incubated on ice for 10 min. and centrifuged for 10,000 RPM for 5 min. Protein was estimated using Bradford protein estimation kit (BioRad). The enzymatic reactions were carried out in 96 well plate. For each reaction 100 μg lysate protein in 50 μl was incubated with 50 μl of 2×reaction buffer and 5 μl of caspase-3 or caspase-8 or caspase-9 calorimetric substrate for 2 h at 37° C. The absorbance was determined at 405 nm.

[2] = system: MCF-7 cells (breast cancer cells); assay: 3H-thymidine incorporation assay, MCF-7; type: cell-based; settings: 10^−6M
Excerpt: (§2) It is well known that secretory epithelial cells are the main sites for the development of cancers of the breast, prostate and various other organs.
It is well-established that the biological properties of 1,25(OH)2D3 and its analogs are mediated by their interaction with VDR.
(§3) In a study, investigators compared the growth-inhibitory effects of 25-OH-D3-3-BE and 1,25(OH)2D3 in several VDR-positive epithelial cells, e.g. keratinocytes (primary skin cells), MCF-7 cells (breast cancer cells), hormone-sensitive LNCaP and hormone-refractory PC3 cells (prostate cancer cells), and PZ-HPV-7 (papillovirus immortalized normal prostate cells) by using ^3H-thymidine incorporation assays (FIGS. 14-19).

[3] = system: keratinocytes (primary cells); assay: 3H-thymidine incorporation assay, keratinocytes; type: cell-based, human; settings: 10^−6M
Excerpt: as §2, §3

[4] = system: PZ-HPV-7 (papillovirus immortalized normal prostate cells); assay: 3H-thymidine incorporation assay, PZ-HPV-7; type: cell-based; settings: PZ-HPV-7 cells, 10^−6M
Description: as §2
The inventors further studied the effect of 1,25(OH)2D3-3-BE on LNCAP cells (most closely resembling human hormone-sensitive prostate cancer) and PZ-HPV-7 cells (immortalized normal prostate cells). The cells were treated with ethanol or 10^−6M of either 1,25(OH)2D3 or 1,25(OH)2D3-3-BE for 16 hours and the effect on proliferation was determined by ^3H-thymidine incorporation assays as described earlier. The viable cell count was determined by Methylene blue assay. The Methylene blue assay is a simple colorimetric method that is widely used to determine the viable cell count.
as §3

[5] = system: PC3 cells (prostate cancer cells); assay: 3H-thymidine incorporation assay, PC3; type: cell-based, human; settings: PC-3 cells, 10^−6M
Excerpt: as §2, §3
Since 25-OH-D3-3-BE contains an ester bond, its hydrolysis by esterases in growing cells would produce equimolar amounts of bromoacetic acid (BAA) and 25-OH-D3 (see, FIG. 21).
Furthermore, fetal calf serum (FCS) contains many proteins, including vitamin D-binding protein, which potentially could absorb 25-OH-D3-3-BE before it reacts with VDR. Typically, the assays described herein were carried out in a media containing 10% FCS (after serum-depriving the cells for 15 hours).

[6] = target: vitamin D receptor, VDR (Homo sapiens, UniProt P11473); assay: cross-linking (affinity labeling) of the hormone-binding pocket of VDR; settings: FIG. 13
Excerpt: The present invention is directed, in part, to novel analogs of 1,25(OH)2D3, for example, 1,25(OH)2D3-3-BE and 25(OH)2D3-3-BE. The inventors have developed a novel affinity alkylating analog of 1,25(OH)2D3 which cross links 1,25(OH)2D3 to the hormone-binding pocket of VDR via a nucleophilic displacement reaction between a Cys residue in the hormone-binding pocket (Cys288) and a reactive bromoacetate group at the 3-position of 1,25(OH)2D3 (Ray R, Ray S., and Holick M. F. 1″,25-dihydroxyvitamin D3-3-deoxy-3$-bromoacetate, an affinity labeling analog of 1″,25-dihydroxyvitamin D3. (1994) Bioorg. Chem. 22 276-283; Ray R, Swamy N, MacDonald P N, Ray S, Haussler M R, and Holick M F. (1996) Affinity labeling of 1″,25-dihydroxyvitamin D3 receptor. J. Biol Chem 271 2012-2017; Swamy N, Kounine M, and Ray R. (1997) Identification of the subdomain in the nuclear receptor for the hormonal form of vitamin D3, 1″,25-dihydroxyvitamin D3, vitamin D receptor, that is covalently modified by an affinity labeling reagent. Arch Biochem Biophys 348 91-95; Chen M L, Ray S, Swamy N, Holick M F, and Ray R. Mechanistic studies to evaluate the enhanced anti-proliferation of human keratinocytes by 1α,25-dihydroxyvitamin D3-3-bromoacetate, a covalent modifier of vitamin D receptor, compared to 1α,25-dihydroxyvitamin D3. (1999) Arch. Biochem. Biophys. […]

[7] = system: PC-3 cells; assay: DNA-fragmentation analysis; type: cell-based, human; settings: 250 nM, 10 hours
Description: (a) DNA-fragmentation analysis: PC-3 cells (2×10^6) were treated with 250 nM of 1,25(OH)2D3, 25-OH-D3 or 25-OH-D3-3-BE for 10 hours. The cells were harvested and lysed in 0.5 ml lysis buffer (20 mM Tris-HCl, 10 mM EDTA, 0.5% Triton X-100, pH 8.0), and DNA was extracted using phenol-chloroform procedure. The DNA was resuspended in 0.1 ml of 20 mM Tris-HCl, pH 8 and treated with Rnase, followed by electrophoresis on 1.2% agarose gel in TAE. The DNA was visualized under UV light after ethidinium bromide staining.

[8] = system: caspase-3; assay: Caspase Colorimetric assay, caspase-3; type: cell-based; settings: PC3 cells, 10 nM, 14 hours
Description: as §1

Chain of vitamin D receptor, VDR (P11473 whole entry): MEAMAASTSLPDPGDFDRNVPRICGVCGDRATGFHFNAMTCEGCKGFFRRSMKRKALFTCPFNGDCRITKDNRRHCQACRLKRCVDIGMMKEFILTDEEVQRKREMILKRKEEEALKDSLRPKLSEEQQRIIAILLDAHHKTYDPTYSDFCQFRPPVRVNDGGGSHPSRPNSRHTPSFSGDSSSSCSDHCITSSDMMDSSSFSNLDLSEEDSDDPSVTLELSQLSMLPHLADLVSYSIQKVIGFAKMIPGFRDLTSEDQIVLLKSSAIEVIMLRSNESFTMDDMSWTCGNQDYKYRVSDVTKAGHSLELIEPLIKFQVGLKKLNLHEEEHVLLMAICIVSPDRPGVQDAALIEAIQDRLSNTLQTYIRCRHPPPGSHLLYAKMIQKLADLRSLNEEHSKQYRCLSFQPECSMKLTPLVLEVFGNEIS

## C=C1CCC(OC(=O)CBr)CC1=CC=C1CCCC2(C)C1CCC2C(C)CCCC(C)(C)O (stereo not drawn) [25-OH-D3-3-BE, 25-hydroxyvitamin D3-3-bromoacetate]
[1]
  Caspase-9 induction: induced
[2]
  growth-inhibitory effect (3H-thymidine incorporation): antiproliferative
  lethal to the cells: not
[3]
  growth-inhibitory effect (3H-thymidine incorporation): antiproliferative
  lethal to the cells: not
[4]
  growth-inhibitory effect (3H-thymidine incorporation): antiproliferative
  lethal to the cells: not
[5]
  growth-inhibitory effect (3H-thymidine incorporation): stronger antiproliferative agent than 1,25(OH)2D3
  lethal to the cells: lethal
[6]
  cross-linking (labeling) of the hormone-binding pocket of VDR: specifically cross-links to the hormone binding pocket of VDR; also recorded: specifically labels the hormone-binding pocket of VDR
[7]
  DNA fragmentation (apoptosis): DNA fragmentation was observed
[8]
  Caspase-3 induction: induced
